In US20170000133A1, “BENZOXABOROLE FUNGICIDES” (SYNGENTA PARTICIPATIONS AG, priority 2013, published 2017):

Key:
[1] = system: Glomerella lagenarium (Colletotrichum lagenarium); assay: Glomerella lagenarium (Colletotrichum lagenarium) / liquid culture (anthracnose); type: cell-based; settings: Colletotrichum orbiculare, PDB potato dextrose broth, 24° C., 3-4 days after application, read-out: disease control (inhibition of growth measured photometrically)
Experimental: 11. Glomerella lagenarium (Colletotrichum lagenarium)/Liquid Culture (Anthracnose): Conidia of the fungus from cryogenic storage were directly mixed into nutrient broth (PDB potato dextrose broth). After placing a DMSO solution of test compound into a 96-well microtiter plate at an application rate of 200 ppm, the nutrient broth containing the fungal spores was added. The test plates were incubated at 24° C. and the inhibition of growth was measured photometrically 3-4 days after application.

Pythium ultimum = Pythium ultimum / liquid culture (seedling damping off); type: cell-based; settings: Globisporangium ultimum; 200 ppm; potato dextrose broth, 24° C., 2-3 days after application; read-out: disease control (inhibition of growth determined photometrically)
Gaeumannomyces graminis = Gaeumannomyces graminis / liquid culture (take-all of cereals); type: cell-based; settings: PDB potato dextrose broth, 24° C., 4-5 days after application, read-out: disease control (inhibition of growth determined photometrically)
Experimental: (§1) 14. Gaeumannomyces graminis/Liquid Culture (Take-all of Cereals): Mycelial fragments of the fungus from cryogenic storage were directly mixed into nutrient broth (PDB potato dextrose broth). After placing a DMSO solution of test compound into a 96-well microtiter plate at an application rate of 200 ppm, the nutrient broth Cp.33, containing the fungal spores is added. The test plates were incubated at 24° C. and the inhibition of growth was determined photometrically 4-5 days after application.

[2] = system: Monographella nivalis (Microdochium nivale); assay: Monographella nivalis (Microdochium nivale) / liquid culture (foot rot cereals); type: cell-based; settings: PDB potato dextrose broth, 24° C., 4-5 days after application, read-out: disease control (inhibition of growth determined photometrically)
[3] = system: Mycosphaerella graminicola (Septoria tritici); assay: Mycosphaerella graminicola (Septoria tritici) / liquid culture (Septoria blotch); type: cell-based; settings: Zymoseptoria tritici, PDB potato dextrose broth, 24° C., 4-5 days after application, read-out: disease control (inhibition of growth determined photometrically)
Experimental: as §1, with “13. Mycosphaerella graminicola (Septoria tritici)/Liquid” for “14. Gaeumannomyces graminis/Liquid”, “(Septoria Blotch): Conidia” for “(Take-all of Cereals): Mycelial fragments”, “broth” for “broth Cp.33,”, “was” for “is”

Plasmopara viticola = assay: whole plant or invertebrate; type: in vivo; settings: foliar, read-out: disease control
[4] = system: Thanatephorus cucumeris (Rhizoctonia solani); assay: Thanatephorus cucumeris (Rhizoctonia solani) / liquid culture (foot rot, damping-off); type: cell-based; settings: PDB potato dextrose broth, 24° C., 3-4 days after application, read-out: disease control (inhibition of growth determined photometrically)
Experimental: 17. Thanatephorus cucumeris (Rhizoctonia solani)/Liquid Culture (Foot Rot, Damping-Off): Mycelia fragments of a newly grown liquid culture of the fungus were directly mixed into nutrient broth (PDB potato dextrose broth). After placing a DMSO solution of the test compounds into a 96-well microtiter plate at an application rate of 200 ppm, the nutrient broth containing the fungal material was added. The test plates were incubated at 24° C. and the inhibition of growth was determined photometrically 3-4 days after application.

[5] = system: Mycosphaerella arachidis (Cercospora arachidicola); assay: Mycosphaerella arachidis (Cercospora arachidicola) / liquid culture (early leaf spot); type: cell-based; settings: PDB potato dextrose broth, 24° C., 4-5 days after application, read-out: disease control (inhibition of growth determined photometrically)
Experimental: as §1, with “12. Mycosphaerella arachidis (Cercospora arachidicola)/Liquid” for “14. Gaeumannomyces graminis/Liquid”, “(Early Leaf Spot): Conidia” for “(Take-all of Cereals): Mycelial fragments”, “broth” for “broth Cp.33,”, “was” for “is”

Cc1ccccc1NC(=O)c1cc2c(cc1Cl)COB2O [Compound 112]
≥ 80%: inhibition at 200 ppm [1]

CC(=O)c1sc(NC(=O)c2cc3c(cc2Cl)COB3O)nc1C [Compound 158]
≥ 80%: inhibition at 200 ppm (Pythium ultimum) | inhibition at 200 ppm [1]

O=C(OC(CF)CF)c1cc2c(cc1Cl)COB2O [Compound 189]
≥ 80%: inhibition at 200 ppm (Pythium ultimum) | inhibition at 200 ppm [1] | inhibition at 200 ppm (Gaeumannomyces graminis) | inhibition at 200 ppm [2]

C=CC(=O)OCC(C)OC(=O)c1cc2c(cc1Cl)COB2O (stereo not drawn) [Compound 191]
≥ 80%: inhibition at 200 ppm [1] | inhibition at 200 ppm [3] | inhibition at 200 ppm (Gaeumannomyces graminis) | inhibition at 200 ppm [2]

O=C(OCC(F)(F)Cl)c1cc2c(cc1Cl)COB2O [Compound 192]
≥ 80%: pest or weed control at 200 ppm (Plasmopara viticola) | inhibition at 200 ppm (Pythium ultimum) | inhibition at 200 ppm [1] | inhibition at 200 ppm [3] | inhibition at 200 ppm (Gaeumannomyces graminis) | inhibition at 200 ppm [2] | inhibition at 200 ppm [4]

CCCCCCCOC(=O)c1cc2c(cc1Cl)COB2O [Compound 195]
≥ 80%: inhibition at 200 ppm [1] | inhibition at 200 ppm [5] | inhibition at 200 ppm [3] | inhibition at 200 ppm (Gaeumannomyces graminis) | inhibition at 200 ppm [2] | inhibition at 200 ppm [4]

O=C(OCC1CCSCC1)c1cc2c(cc1Cl)COB2O [Compound 196]
≥ 80%: pest or weed control at 200 ppm (Plasmopara viticola) | inhibition at 200 ppm (Pythium ultimum) | inhibition at 200 ppm [1] | inhibition at 200 ppm [3] | inhibition at 200 ppm (Gaeumannomyces graminis) | inhibition at 200 ppm [2]

CCCCSCCOC(=O)c1cc2c(cc1Cl)COB2O [Compound 198]
≥ 80%: inhibition at 200 ppm (Pythium ultimum) | inhibition at 200 ppm [1] | inhibition at 200 ppm [5] | inhibition at 200 ppm [3] | inhibition at 200 ppm [2] | inhibition at 200 ppm [4]

O=C(OCc1ccc(-c2ccccc2)cc1)c1cc2c(cc1Cl)COB2O [Compound 199]
≥ 80%: inhibition at 200 ppm [1] | inhibition at 200 ppm [3] | inhibition at 200 ppm (Gaeumannomyces graminis) | inhibition at 200 ppm [2]

CC(F)COC(=O)c1cc2c(cc1Cl)COB2O (stereo not drawn) [Compound 209]
≥ 80%: inhibition at 200 ppm (Pythium ultimum) | inhibition at 200 ppm [1] | inhibition at 200 ppm (Gaeumannomyces graminis) | inhibition at 200 ppm [2] | inhibition at 200 ppm [4]

O=C(OCc1ncc(C(F)(F)F)cc1Cl)c1cc2c(cc1Cl)COB2O [Compound 221]
≥ 80%: inhibition at 200 ppm (Pythium ultimum) | inhibition at 200 ppm [1] | inhibition at 200 ppm (Gaeumannomyces graminis) | inhibition at 200 ppm [2]

COC(=O)C(OC(=O)c1cc2c(cc1Cl)COB2O)c1ccccc1 (stereo not drawn) [Compound 223]
≥ 80%: pest or weed control at 200 ppm (Plasmopara viticola) | inhibition at 200 ppm (Pythium ultimum) | inhibition at 200 ppm [1] | inhibition at 200 ppm [2]

COCCOC(=O)c1cc2c(cc1Cl)COB2O [Compound 224]
≥ 80%: inhibition at 200 ppm (Pythium ultimum) | inhibition at 200 ppm [1] | inhibition at 200 ppm (Gaeumannomyces graminis) | inhibition at 200 ppm [2]

O=C(OCCCCc1ccc2ccccc2c1)c1cc2c(cc1Cl)COB2O [Compound 227]
≥ 80%: inhibition at 200 ppm [1] | inhibition at 200 ppm [3] | inhibition at 200 ppm [2] | inhibition at 200 ppm [4]

O=C(OC1CCOCC1)c1cc2c(cc1Cl)COB2O [Compound 237]
≥ 80%: inhibition at 200 ppm (Pythium ultimum) | inhibition at 200 ppm [1] | inhibition at 200 ppm [2]

O=C(OCCC(F)(F)F)c1cc2c(cc1Cl)COB2O [Compound 238]
≥ 80%: pest or weed control at 200 ppm (Plasmopara viticola) | inhibition at 200 ppm (Pythium ultimum) | inhibition at 200 ppm [1] | inhibition at 200 ppm [3] | inhibition at 200 ppm (Gaeumannomyces graminis) | inhibition at 200 ppm [2] | inhibition at 200 ppm [4]

Cc1ccccc1NC(=O)c1ccc2c(c1)B(O)OC2 [Compound 280]
≥ 80%: inhibition at 200 ppm (Pythium ultimum) | inhibition at 200 ppm [1]

O=C(OCc1ccc(-c2ccccc2)cc1)c1ccc2c(c1)B(O)OC2 [Compound 325]
≥ 80%: inhibition at 200 ppm [1] | inhibition at 200 ppm [5] | inhibition at 200 ppm [3] | inhibition at 200 ppm (Gaeumannomyces graminis) | inhibition at 200 ppm [2]

O=C(OCc1ccc(C(F)(F)F)cc1Cl)c1ccc2c(c1)B(O)OC2 [Compound 326]
≥ 80%: inhibition at 200 ppm [1] | inhibition at 200 ppm (Gaeumannomyces graminis) | inhibition at 200 ppm [2]

C#CC(CC)OC(=O)c1ccc2c(c1)B(O)OC2 (stereo not drawn) [Compound 327]
≥ 80%: pest or weed control at 200 ppm (Plasmopara viticola) | inhibition at 200 ppm (Pythium ultimum) | inhibition at 200 ppm [1] | inhibition at 200 ppm (Gaeumannomyces graminis) | inhibition at 200 ppm [4]

Cn1cc(CCCOC(=O)c2ccc3c(c2)B(O)OC3)cn1 [Compound 345]
≥ 80%: pest or weed control at 200 ppm (Plasmopara viticola) | inhibition at 200 ppm (Pythium ultimum) | inhibition at 200 ppm [1] | inhibition at 200 ppm [5] | inhibition at 200 ppm (Gaeumannomyces graminis) | inhibition at 200 ppm [4]

O=C(OCCF)c1ccc2c(c1)B(O)OC2 [Compound 360]
≥ 80%: pest or weed control at 200 ppm (Plasmopara viticola) | inhibition at 200 ppm (Pythium ultimum) | inhibition at 200 ppm [1] | inhibition at 200 ppm [5] | inhibition at 200 ppm [4]

O=C(OCCC(F)(F)F)c1ccc2c(c1)B(O)OC2 [Compound 369]
≥ 80%: inhibition at 200 ppm (Pythium ultimum) | inhibition at 200 ppm [1] | inhibition at 200 ppm (Gaeumannomyces graminis) | inhibition at 200 ppm [2] | inhibition at 200 ppm [4]

CCCCSCCOC(=O)c1cc2c(cc1F)COB2O [Compound 384]
≥ 80%: inhibition at 200 ppm (Pythium ultimum) | inhibition at 200 ppm [1] | inhibition at 200 ppm [5] | inhibition at 200 ppm [3] | inhibition at 200 ppm [2] | inhibition at 200 ppm [4]

O=C(OCc1ccc(-c2ccccc2)cc1)c1cc2c(cc1F)COB2O [Compound 385]
≥ 80%: inhibition at 200 ppm [1] | inhibition at 200 ppm [5] | inhibition at 200 ppm [3] | inhibition at 200 ppm (Gaeumannomyces graminis) | inhibition at 200 ppm [2] | inhibition at 200 ppm [4]

O=C(OCc1ccc(C(F)(F)F)cc1Cl)c1cc2c(cc1F)COB2O [Compound 386]
≥ 80%: inhibition at 200 ppm (Pythium ultimum) | inhibition at 200 ppm [1] | inhibition at 200 ppm [5] | inhibition at 200 ppm (Gaeumannomyces graminis) | inhibition at 200 ppm [2] | inhibition at 200 ppm [4]

C#CC(CC)OC(=O)c1cc2c(cc1F)COB2O (stereo not drawn) [Compound 387]
≥ 80%: inhibition at 200 ppm (Pythium ultimum) | inhibition at 200 ppm [1] | inhibition at 200 ppm [3] | inhibition at 200 ppm (Gaeumannomyces graminis) | inhibition at 200 ppm [2] | inhibition at 200 ppm [4]

O=C(OCCCF)c1cc2c(cc1F)COB2O [Compound 390]
≥ 80%: pest or weed control at 200 ppm (Plasmopara viticola) | inhibition at 200 ppm (Pythium ultimum) | inhibition at 200 ppm [1] | inhibition at 200 ppm (Gaeumannomyces graminis) | inhibition at 200 ppm [2] | inhibition at 200 ppm [4]

C#CCCCOC(=O)c1cc2c(cc1F)COB2O [Compound 395]
≥ 80%: pest or weed control at 200 ppm (Plasmopara viticola) | inhibition at 200 ppm (Pythium ultimum) | inhibition at 200 ppm [1] | inhibition at 200 ppm [5] | inhibition at 200 ppm (Gaeumannomyces graminis) | inhibition at 200 ppm [2] | inhibition at 200 ppm [4]

Cn1cc(CCCOC(=O)c2cc3c(cc2F)COB3O)cn1 [Compound 407]
≥ 80%: inhibition at 200 ppm (Pythium ultimum) | inhibition at 200 ppm [1] | inhibition at 200 ppm [5] | inhibition at 200 ppm [4]

O=C(OCc1ncc(C(F)(F)F)cc1Cl)c1cc2c(cc1F)COB2O [Compound 409]
≥ 80%: pest or weed control at 200 ppm (Plasmopara viticola) | inhibition at 200 ppm (Pythium ultimum) | inhibition at 200 ppm [1] | inhibition at 200 ppm (Gaeumannomyces graminis) | inhibition at 200 ppm [2] | inhibition at 200 ppm [4]

COC(=O)C(OC(=O)c1cc2c(cc1F)COB2O)c1ccccc1 (stereo not drawn) [Compound 411]
≥ 80%: pest or weed control at 200 ppm (Plasmopara viticola) | inhibition at 200 ppm (Pythium ultimum) | inhibition at 200 ppm [1] | inhibition at 200 ppm [3] | inhibition at 200 ppm (Gaeumannomyces graminis) | inhibition at 200 ppm [2]

COCCOC(=O)c1cc2c(cc1F)COB2O [Compound 412]
≥ 80%: pest or weed control at 200 ppm (Plasmopara viticola) | inhibition at 200 ppm (Pythium ultimum) | inhibition at 200 ppm [1] | inhibition at 200 ppm [5] | inhibition at 200 ppm [2] | inhibition at 200 ppm [4]

O=C(OCC(F)F)c1cc2c(cc1F)COB2O [Compound 427]
≥ 80%: inhibition at 200 ppm (Pythium ultimum) | inhibition at 200 ppm [1] | inhibition at 200 ppm [2] | inhibition at 200 ppm [4]
